Test results as given in paper PMC10482267, “Safety, tolerability, pharmacokinetics, and pharmacodynamics of single and multiple doses of aficamten in healthy Chinese participants: a randomized, double-blind, placebo-controlled, phase 1 study” (Frontiers in Pharmacology, 2023).

System: healthy Chinese participants
Test: Safety assessments (treatment-emergent adverse events)
Type: in vivo, human
Conditions: for safety and tolerability, in words: single dose of 10 mg or 20 mg and multiple doses of 5 mg, oral
Protocol: Safety was evaluated based on the occurrence, frequency, and severity of adverse events (AEs). Routine clinical laboratory tests, 12‐lead ECGs, physical examinations, and vital signs (blood pressure, pulse rate, and body temperature) were performed at initial screening, day 1, during the treatment period until discharge or early termination. The AEs were monitored from the initial administration to the last follow-up after the last treatment. The AEs were assessed by the investigators with regard to severity (mild, moderate, severe, and life‐threatening) and the relationship to study treatment (reasonably or possibly related and not reasonably or not possibly related).

CCc1nc(-c2ccc3c(c2)CC[C@H]3NC(=O)c2cnn(C)c2)no1 [aficamten]
TEAE Alanine aminotransferase increased, Number (%) of Subjects (MD 5 mg (N = 9)): 0 Number (%)
TEAE Blood bilirubin increased, Number (%) of Subjects (MD 5 mg (N = 9)): 0 Number (%)
TEAE Blood creatine phosphokinase increased, Events (MD 5 mg (N = 9)): 1
TEAE Blood creatine phosphokinase increased, Number (%) of Subjects (MD 5 mg (N = 9)): 1(11.1) Number (%)
TEAE Blood creatinine increased, Events (MD 5 mg (N = 9)): 1
TEAE Blood creatinine increased, Number (%) of Subjects (MD 5 mg (N = 9)): 1(11.1) Number (%)
TEAE Blood sodium decreased, Events (MD 5 mg (N = 9)): 1
TEAE Blood sodium decreased, Number (%) of Subjects (MD 5 mg (N = 9)): 1(11.1) Number (%)
TEAE Cardiac disorders (SOC), Number (%) of Subjects (MD 5 mg (N = 9)): 0 Number (%)
TEAE Chest discomfort, Number (%) of Subjects (MD 5 mg (N = 9)): 0 Number (%)
TEAE Conjugated bilirubin increased, Events (MD 5 mg (N = 9)): 2
TEAE Conjugated bilirubin increased, Number (%) of Subjects (MD 5 mg (N = 9)): 2(22.2) Number (%)
TEAE Gamma-glutamyltransferase increased, Number (%) of Subjects (MD 5 mg (N = 9)): 0 Number (%)
TEAE Gastrointestinal disorders (SOC), Number (%) of Subjects (MD 5 mg (N = 9)): 0 Number (%)
TEAE General disorders and administration site conditions (SOC), Number (%) of Subjects (MD 5 mg (N = 9)): 0 Number (%)
TEAE Heart rate decreased, Number (%) of Subjects (MD 5 mg (N = 9)): 0 Number (%)
TEAE Investigations (SOC), Events (MD 5 mg (N = 9)): 13
TEAE Investigations (SOC), Number (%) of Subjects (MD 5 mg (N = 9)): 6(66.7) Number (%)
TEAE Nausea, Number (%) of Subjects (MD 5 mg (N = 9)): 0 Number (%)
TEAE Neutrophil count decreased, Events (MD 5 mg (N = 9)): 2
TEAE Neutrophil count decreased, Number (%) of Subjects (MD 5 mg (N = 9)): 1(11.1) Number (%)
TEAE Neutrophil count increased (first line, r9), Events (MD 5 mg (N = 9)): 1
TEAE Neutrophil count increased (first line, r9), Number (%) of Subjects (MD 5 mg (N = 9)): 1(11.1) Number (%)
TEAE Neutrophil count increased (second line, r18), Events (MD 5 mg (N = 9)): 1
TEAE Neutrophil count increased (second line, r18), Number (%) of Subjects (MD 5 mg (N = 9)): 1(11.1) Number (%)
TEAE Rash, Events (MD 5 mg (N = 9)): 1
TEAE Rash, Number (%) of Subjects (MD 5 mg (N = 9)): 1(11.1) Number (%)
TEAE Skin and subcutaneous tissue disorders (SOC), Events (MD 5 mg (N = 9)): 1
TEAE Skin and subcutaneous tissue disorders (SOC), Number (%) of Subjects (MD 5 mg (N = 9)): 1(11.1) Number (%)
TEAE Systolic blood pressure decreased, Events (MD 5 mg (N = 9)): 3
TEAE Systolic blood pressure decreased, Number (%) of Subjects (MD 5 mg (N = 9)): 2(22.2) Number (%)
TEAE Ventricular hypokinesia, Number (%) of Subjects (MD 5 mg (N = 9)): 0 Number (%)
TEAE White blood cell count decreased, Number (%) of Subjects (MD 5 mg (N = 9)): 0 Number (%)
TEAE White blood cell count increased, Events (MD 5 mg (N = 9)): 1
TEAE White blood cell count increased, Number (%) of Subjects (MD 5 mg (N = 9)): 1(11.1) Number (%)
TEAEs, Events (MD 5 mg (N = 9)): 14
TEAEs, Number (%) of Subjects (MD 5 mg (N = 9)): 6(66.7) Number (%)
TEAE Alanine aminotransferase increased, Number (%) of Subjects (SAD 10 mg (N = 6)): 0 Number (%)
TEAE Blood bilirubin increased, Number (%) of Subjects (SAD 10 mg (N = 6)): 0 Number (%)
TEAE Blood creatine phosphokinase increased, Number (%) of Subjects (SAD 10 mg (N = 6)): 0 Number (%)
TEAE Blood creatinine increased, Number (%) of Subjects (SAD 10 mg (N = 6)): 0 Number (%)
TEAE Blood sodium decreased, Number (%) of Subjects (SAD 10 mg (N = 6)): 0 Number (%)
TEAE Cardiac disorders (SOC), Events (SAD 10 mg (N = 6)): 1
TEAE Cardiac disorders (SOC), Number (%) of Subjects (SAD 10 mg (N = 6)): 1(16.7) Number (%)
TEAE Chest discomfort, Number (%) of Subjects (SAD 10 mg (N = 6)): 0 Number (%)
TEAE Conjugated bilirubin increased, Number (%) of Subjects (SAD 10 mg (N = 6)): 0 Number (%)
TEAE Gamma-glutamyltransferase increased, Number (%) of Subjects (SAD 10 mg (N = 6)): 0 Number (%)
TEAE Gastrointestinal disorders (SOC), Number (%) of Subjects (SAD 10 mg (N = 6)): 0 Number (%)
TEAE General disorders and administration site conditions (SOC), Number (%) of Subjects (SAD 10 mg (N = 6)): 0 Number (%)
TEAE Heart rate decreased, Number (%) of Subjects (SAD 10 mg (N = 6)): 0 Number (%)
TEAE Investigations (SOC), Events (SAD 10 mg (N = 6)): 2
TEAE Investigations (SOC), Number (%) of Subjects (SAD 10 mg (N = 6)): 1(16.7) Number (%)
TEAE Nausea, Number (%) of Subjects (SAD 10 mg (N = 6)): 0 Number (%)
TEAE Neutrophil count decreased, Events (SAD 10 mg (N = 6)): 1
TEAE Neutrophil count decreased, Number (%) of Subjects (SAD 10 mg (N = 6)): 1(16.7) Number (%)
TEAE Neutrophil count increased (first line, r9), Number (%) of Subjects (SAD 10 mg (N = 6)): 0 Number (%)
TEAE Neutrophil count increased (second line, r18), Number (%) of Subjects (SAD 10 mg (N = 6)): 0 Number (%)
TEAE Rash, Number (%) of Subjects (SAD 10 mg (N = 6)): 0 Number (%)
TEAE Skin and subcutaneous tissue disorders (SOC), Number (%) of Subjects (SAD 10 mg (N = 6)): 0 Number (%)
TEAE Systolic blood pressure decreased, Number (%) of Subjects (SAD 10 mg (N = 6)): 0 Number (%)
TEAE Ventricular hypokinesia, Events (SAD 10 mg (N = 6)): 1
TEAE Ventricular hypokinesia, Number (%) of Subjects (SAD 10 mg (N = 6)): 1(16.7) Number (%)
TEAE White blood cell count decreased, Events (SAD 10 mg (N = 6)): 1
TEAE White blood cell count decreased, Number (%) of Subjects (SAD 10 mg (N = 6)): 1(16.7) Number (%)
TEAE White blood cell count increased, Number (%) of Subjects (SAD 10 mg (N = 6)): 0 Number (%)
TEAEs, Events (SAD 10 mg (N = 6)): 3
TEAEs, Number (%) of Subjects (SAD 10 mg (N = 6)): 1(16.7) Number (%)
TEAE Alanine aminotransferase increased, Number (%) of Subjects (SAD 20 mg (N = 6)): 0 Number (%)
TEAE Blood bilirubin increased, Events (SAD 20 mg (N = 6)): 1
TEAE Blood bilirubin increased, Number (%) of Subjects (SAD 20 mg (N = 6)): 1(16.7) Number (%)
TEAE Blood creatine phosphokinase increased, Number (%) of Subjects (SAD 20 mg (N = 6)): 0 Number (%)
TEAE Blood creatinine increased, Number (%) of Subjects (SAD 20 mg (N = 6)): 0 Number (%)
TEAE Blood sodium decreased, Number (%) of Subjects (SAD 20 mg (N = 6)): 0 Number (%)
TEAE Cardiac disorders (SOC), Number (%) of Subjects (SAD 20 mg (N = 6)): 0 Number (%)
TEAE Chest discomfort, Events (SAD 20 mg (N = 6)): 2
TEAE Chest discomfort, Number (%) of Subjects (SAD 20 mg (N = 6)): 1(16.7) Number (%)
TEAE Conjugated bilirubin increased, Events (SAD 20 mg (N = 6)): 2
TEAE Conjugated bilirubin increased, Number (%) of Subjects (SAD 20 mg (N = 6)): 2(33.3) Number (%)
TEAE Gamma-glutamyltransferase increased, Number (%) of Subjects (SAD 20 mg (N = 6)): 0 Number (%)
TEAE Gastrointestinal disorders (SOC), Events (SAD 20 mg (N = 6)): 1
TEAE Gastrointestinal disorders (SOC), Number (%) of Subjects (SAD 20 mg (N = 6)): 1(16.7) Number (%)
TEAE General disorders and administration site conditions (SOC), Events (SAD 20 mg (N = 6)): 2
TEAE General disorders and administration site conditions (SOC), Number (%) of Subjects (SAD 20 mg (N = 6)): 1(16.7) Number (%)
TEAE Heart rate decreased, Events (SAD 20 mg (N = 6)): 2
TEAE Heart rate decreased, Number (%) of Subjects (SAD 20 mg (N = 6)): 1(16.7) Number (%)
TEAE Investigations (SOC), Events (SAD 20 mg (N = 6)): 7
TEAE Investigations (SOC), Number (%) of Subjects (SAD 20 mg (N = 6)): 4(66.7) Number (%)
TEAE Nausea, Events (SAD 20 mg (N = 6)): 1
TEAE Nausea, Number (%) of Subjects (SAD 20 mg (N = 6)): 1(16.7) Number (%)
TEAE Neutrophil count decreased, Number (%) of Subjects (SAD 20 mg (N = 6)): 0 Number (%)
TEAE Neutrophil count increased (first line, r9), Number (%) of Subjects (SAD 20 mg (N = 6)): 0 Number (%)
TEAE Neutrophil count increased (second line, r18), Number (%) of Subjects (SAD 20 mg (N = 6)): 0 Number (%)
TEAE Rash, Number (%) of Subjects (SAD 20 mg (N = 6)): 0 Number (%)
TEAE Skin and subcutaneous tissue disorders (SOC), Number (%) of Subjects (SAD 20 mg (N = 6)): 0 Number (%)
TEAE Systolic blood pressure decreased, Events (SAD 20 mg (N = 6)): 2
TEAE Systolic blood pressure decreased, Number (%) of Subjects (SAD 20 mg (N = 6)): 2(33.3) Number (%)
TEAE Ventricular hypokinesia, Number (%) of Subjects (SAD 20 mg (N = 6)): 0 Number (%)
TEAE White blood cell count decreased, Number (%) of Subjects (SAD 20 mg (N = 6)): 0 Number (%)
TEAE White blood cell count increased, Number (%) of Subjects (SAD 20 mg (N = 6)): 0 Number (%)
TEAEs, Events (SAD 20 mg (N = 6)): 10
TEAEs, Number (%) of Subjects (SAD 20 mg (N = 6)): 4(66.7) Number (%)
deaths, SAEs, AESIs, discontinuations due to TEAEs, LVEF <50% (all cohorts): no deaths, serious adverse events (SAEs)
severity of TEAEs (all cohorts): mild
safety and tolerability, in words: well-tolerated
safety and tolerability, in words (listed as Aficamten): safe and well-tolerated
